According to patent publication US20230025067A1, “SOLID LOW FOAMING IN DISSOLUTION AND LOW PH ALL-PURPOSE CLEANER AND DISINFECTANT COMPOSITIONS” (Reckitt Benckiser LLC, priority 2021, published 2023):

Experiments:
[1] = Tableting and stability of R&D formulations with other citric acid grades; assay type: physicochemical; conditions: R&D formulations similar to Formula E1
germ = assay: R&D germ kill testing of aqueous citric acid solutions; assay type: cell-based; conditions: aqueous solutions containing 2.5% w/v
Text: As discussed above, lemon juice contains 5-8% citric acid, amongst other potentially disinfecting ingredients like malic acid, ascorbic acid, and essential oils.

Staphyloccocus aureus = conditions: 1 mg/mL solution in a 20% dimethyl sulfoxide water solution; cited from earlier work

Compound	suitability for tablet formulation (hygroscopicity, tableting) [1]	germ kill results (germ)	activity against Staphyloccocus aureus (Staphyloccocus aureus)
O=C(O)CC(O)(CC(=O)O)C(=O)O [Citric acid anhydrous, citric acid anhydrous]	too hygroscopic for use in a tablet formulation		
O=C(O)CC(O)(CC(=O)O)C(=O)O [citric acid]		did not produce consistent or satisfactory germ kill results	inactive
